From patent US9828326B2, “Amooranin compounds and analogs thereof and related methods of use” (priority 2011, dated 2017)
Marks after values point to notes of the source that are not given here.

Key:
breast cancer cells = settings: cited from earlier work
[1] = mice; cited from earlier work
[2] = General observations: body weight, food and water intake; assay type: in vivo, Sprague-Dawley rats
Experimental: The DMBA was dissolved in corn oil.

ER-α = assay: Immunohistochemistry of ER-α in mammary tumors; assay type: in vivo, Sprague-Dawley rats; settings: low (0.8 mg/kg) or medium (1.2 mg/kg) dose + DMBA
Experimental: (§1) Serial sections of tumor tissue were used processed for immunohistochemical analysis. Cell proliferation was studied by immunohistochemical detection of proliferating cell nuclear antigen (PCNA) as a proliferation marker. The analysis of apoptotic cells in tumor sections were performed by using TdT-FragEL™ DNA fragmentation detection assay kit (EMD Biosciences, Inc., San Diego, Calif.). The protein expression of Bax (apoptosis inducer),Bcl-2 (apoptosis repressor), ER-a, ER-β, cyclin D1 and β-catenin were determined. The immunohistochemical slides were visualized under a light microscope (BX43, Olympus, Center Valley, Pa.) and at least 1,000 cells/animal were analyzed. Results were expressed as percentage of immunopositive cells.

PARP = assay: RT-PCR of tumor samples, PARP; assay type: in vivo, Sprague-Dawley rats; settings: tumors of AMR-Me + DMBA rats
Experimental: (§2) Total RNA from 20 mg of tumor sample was extracted using Quick RNA® mini Prep kit following the manufacturer's instructions. The expression levels of apoptotic and anti-apoptotic genes were monitored by reverse transcription-polymerase chain reaction (RT-PCR) using the cDNA verso kit with a temperature scale of 42° C. for 30 min for reverse transcription, and 32 cycles of 94° C. for 30 s, 56° C. for 30 s, and 72° C. for 30 s. The RT-PCR was carried out using the primers: […]
(§3) The PCR products were analyzed on 1% agarose gel and visualized by ethidium bromide staining.

CASP7 = assay: RT-PCR of tumor samples, CASP7; assay type: in vivo, Sprague-Dawley rats; settings: tumors of AMR-Me + DMBA rats
Experimental: as §2, §3

Bax [3] = assay: RT-PCR of tumor samples, BAX; assay type: in vivo, Sprague-Dawley rats; settings: tumors of AMR-Me + DMBA rats
Experimental: as §2, §3

Bax [4] = assay: Immunohistochemistry of Bax in mammary tumors; assay type: in vivo, Sprague-Dawley rats
Experimental: as §1

Bcl-2 [5] = assay: Western blot of Bcl-2 in tumor tissue; assay type: in vivo, Sprague-Dawley rats
Experimental: (§4) Total proteins were extracted from tumor tissues with lysis buffer (containing 20 mM HEPES, 350 mM NaCl, […], 1 mM MgCh, 20% glycerol, and 1% NP-40), boiled and separated by 4-20% gradient sodium dodecyl sulfate-polyacrylamide gel electrophoresis. The proteins were transferred to polyvinylidene fluoride membranes (Santa Cruz Biotechnology Inc., Santa Cruz, Calif.), and reacted with primary mouse monoclonal antibodies to Bax, Bcl-2, Bel-XL and β-Actin (dilution 1:200) and subsequently with anti-mouse secondary antibodies (dilution 1:1,000) conjugated to horseradish peroxidase. The immunoreactions were detected by an enhanced chemiluminescence detection kit (Them10 Scientific, Rockford, Ill.) and relative intensities of bands on blots were quantitated by autoluminography using a Kodak digital imaging system. Normalization of Western blot was ensured by β-Actin.

CASP3 = assay: RT-PCR of tumor samples, CASP3; assay type: in vivo, Sprague-Dawley rats; settings: tumors of AMR-Me + DMBA rats
Experimental: as §2, §3

BCL2 = assay: RT-PCR of tumor samples, BCL2; assay type: in vivo, Sprague-Dawley rats; settings: tumors of AMR-Me + DMBA rats
Experimental: as §2, §3

[6] = design: species or system Sprague-Dawley rats; settings: rat, in vivo, 1.6 mg/kg
Experimental: The possible toxicity of high dose (1.6 mg/kg) of AMR-Me was studied by investigating hepatic and renal histopathological characteristics using H&E staining.

cyclin D1 = assay: Immunohistochemistry of cyclin D1 in mammary tumors; assay type: in vivo, Sprague-Dawley rats; settings: medium (1.2 mg/kg) or high (1.6 mg/kg) dose + DMBA, vs DMBA control
Experimental: as §1

[7] = system: proliferating cell nuclear antigen (PCNA); assay: Immunohistochemical detection of PCNA in tumor sections (cell proliferation); assay type: in vivo, Sprague-Dawley rats
Experimental: as §1

BAD = assay: RT-PCR of tumor samples, BAD; assay type: in vivo, Sprague-Dawley rats; settings: tumors of AMR-Me + DMBA rats
Experimental: as §2, §3

[8] = system: apoptotic cells in tumor sections; assay: TdT-FragEL DNA fragmentation detection assay in tumor sections (apoptosis); assay type: in vivo, Sprague-Dawley rats
Experimental: as §1

Bcl-2 [9] = assay: Immunohistochemistry of Bcl-2 in mammary tumors; assay type: in vivo, Sprague-Dawley rats
Experimental: as §1

β-catenin = assay: Immunohistochemistry of β-catenin in mammary tumors; assay type: in vivo, Sprague-Dawley rats; settings: 0.8 mg/kg or 1.2 mg/kg + DMBA
Experimental: as §1

Bax [10] = assay: Western blot of Bax in tumor tissue; assay type: in vivo, Sprague-Dawley rats; settings: all doses (0.8, 1.2, 1.6 mg/kg) + DMBA
Experimental: as §4

[11] = system: DMBA-induced mammary tumorigenesis; assay: Chemoprevention of DMBA-induced mammary tumorigenesis; settings: for No. of rats with tumors/total rats / Total tumor burden / Tumor Incidence / Average tumor weight: + DMBA; for Average tumor weight: mean±SEM
Source text: Following an acclimatization period of one week, rats (−43 days of age) were randomly divided into six groups of 7-11 animals in each. […] Two groups (groups A and B) were maintained on the basal diet without any further treatment, whereas the remaining four groups (groups C, D, E and F) were fed with AMR-Me through oral gavage three times a week (Monday-Wednesday-Friday). AMR-Me was mixed in polyethylene glycol (Sigma-Aldrich, St. Louis, Mo.) and administered by gently securing the animal by holding the skin back of its head and delivering the drug slowly via an animal feeding needle (Popper and Sons, Inc., New Hyde Park, N.Y.) attached to a I-ml syringe (Becton Dickinson, Franklin Lakes, N.J.). This technique ensured the accurate oral dosing of the test material. Three doses of AMR-Me were used: 0.8 mg/kg (for group C), 1.2 mg/kg (for group D) and 1.6 mg/kg (for groups E and F). These three doses (low, medium and high) represent 40, 60 and 80% of calculated maximum tolerated dose (MTD) in rats, respectively. The rat MTD was calculated based on the MTD in mice (3 mg/kg/day).
Following two week of aforementioned treatment regimen, at −57 days of age, mammary carcinogenesis was initiated in all animals belonging to groups B, C, D and E by a single administration of the mammary carcinogen, DMBA at 50 mg/kg body weight by gavage. The DMBA was dissolved in corn oil. This dose of DMBA was chosen so that substantial tumor incidence could be produced but not so high as to overwhelm the chemopreventive action of AMR-Me. Oral treatment of rats with AMR-Me in groups C, D, E and F were continued for 16 weeks following the DMBA administration (i.e., a total period of 18 weeks). Food and water intake as well as behavioral patterns were monitored daily and body weights of animals were recorded every alternate week.
Animals were palpated along the milk line twice a week starting 4 weeks following DMBA treatment to detect the presence of mammary tumors. All animals were sacrificed at 16 weeks post-DMBA treatment (i.e., 18 weeks following the start of the experiment).
Following an overnight fast, animals from each group were anesthetized between 09:00 and 11:00 h by intramuscular injection of 40-87 mg/kg ketamine and 5-13 mg/kg xylazine. The skin was dissected out to expose mammary tumors. The tumors (approximated spheres) were separated from mammary gland parenchyma, carefully excised, rinsed with phosphate-buffered saline (pH 7.4) to flush out any blood, blotted dry on a paper towel, weighed, and photographed. Each tumor was measured in two perpendicular directions with a vernier caliper to the nearest mm to obtain an average diameter. The representative tumor tissue as well liver and kidney were harvested and either immediately flash frozen in liquid nitrogen for molecular work or fixed in 4% paraformaldehyde. Later, serial tumor sections (−15-μm thick) were prepared using a microtome. These sections were used for histopathological assessment by hematoxylin and eosin (H&E) staining.

[12] = system: breast cancer MCF-7 cells; settings: in vitro; cited from earlier work
[13] = medium (1.2 mg/kg) or high (1.6 mg/kg) dose + DMBA
[14] = group C: 0.8 mg/kg oral three times a week, 18 weeks
[15] = group D: 1.2 mg/kg oral three times a week, 18 weeks
[16] = group E: 1.6 mg/kg oral three times a week, 18 weeks

Question: For `CC1(C)CC[C@]2(C(=O)O)CC[C@]3(C)C(=CC[C@@H]4[C@@]5(CO)CCC(=O)C(C)(C)[C@@H]5CC[C@]43C)[C@@H]2C1` [AMR, 25-Hydroxy-3-oxoolean-12-en-28-oic Acid], which anti-neoplastic activity (breast cancer cells; plant-derived compound) is on record?
Answer: relatively weak

Question: Which “maximum tolerated dose (MTD)” value [1] does the source give for `COC(=O)[C@]12CCC(C)(C)C[C@H]1C1=CC[C@@H]3[C@@]4(CO)CCC(=O)C(C)(C)[C@@H]4CC[C@@]3(C)[C@]1(C)CC2` [AMR-Me, 25-hydroxy-3-oxoolean-12-en-28-oic Acid Methyl Ester] here?
Answer: 3 mg/kg/day

Question: What about the “body weights among rat groups” value ([2]; 0.8, 1.2 or 1.6 mg/kg, any time point) of the same compound?
Answer: No significant difference

Question: And the “food and water intakes” value ([2]; normal animals, 1.6 mg/kg body weight, 18 weeks)?
Answer: unaltered

Question: What about the “intra-tumor expression of ER-α” value (ER-α) of the same compound?
Answer: reduced

Question: And the “ratio of ER-α/ER-β” value (ER-α)?
Answer: concomitant drop

Question: What about the “PARP mRNA level (RT-PCR)” value (PARP) of the same compound?
Answer: up-regulation

Question: What about the “inhibition of proliferation of several breast cancer cells, potency” value (breast cancer cells; relative to the parent compound) of the same compound?
Answer: greater potency than the parent compound AMR

Question: And the “CASP7 mRNA level (RT-PCR)” value (CASP7)?
Answer: up-regulation

Question: What about the “BAX mRNA level (RT-PCR)” value (Bax [3]) of the same compound?
Answer: up-regulation

Question: And the “frequency of Bax-immunopositive cells” value (Bax [4]; low dose 0.8 mg/kg + DMBA)?
Answer: extremely low

Question: What about the Bax/Bcl-2 ratio (Bax [4]; [13]) of the same compound?
Answer: elevated the Bax/Bcl-2 ratio in a dose-responsive manner

Question: And the Bax-positive cells (Bax [4]; medium (1.2 mg/kg) or high (1.6 mg/kg) dose + DMBA, vs DMBA alone)?
Answer: significantly (P<0.001) increased

Question: And the “Bcl-2 expression (Western blot)” value (Bcl-2 [5]; high dose 1.6 mg/kg + DMBA)?
Answer: complete abrogation

Question: And the “Bcl-2 expression (Western blot)” value (Bcl-2 [5]; low or medium dose + DMBA)?
Answer: did not modify Bel-2 expression

Question: What about the “CASP3 mRNA level (RT-PCR)” value (CASP3) of the same compound?
Answer: up-regulation

Question: And the “BCL2 mRNA level (RT-PCR)” value (BCL2)?
Answer: down-regulation

Question: What about the “hepatotoxicity (hepatic histopathology)” value [6] of the same compound?
Answer: no hepatotoxicity was observed

Question: What about the “nephrotoxicity (renal histopathology)” value [6] of the same compound?
Answer: did not exhibit any nephrotoxicity

Question: And the “percentage of cyclin D1-positive cells” value (cyclin D1)?
Answer: significant (P<0.05 or 0.001) decrease

Question: What about the “proliferation of tumor cells (PCNA-positive cells)” value ([7]; low dose 0.8 mg/kg + DMBA) of the same compound?
Answer: marginal reduction in the proliferation of tumor cells

Question: And the “PCNA labeling index (LI)” value ([7]; medium (1.2 mg/kg) or high (1.6 mg/kg) dose + DMBA, vs DMBA control)?
Answer: statistically significant (P<0.001) decrease

Question: And the “BAD mRNA level (RT-PCR)” value (BAD)?
Answer: up-regulation

Question: What about the “apoptotic index (AI)” value ([8]; low dose 0.8 mg/kg + DMBA, vs DMBA control) of the same compound?
Answer: no noticeable difference

Question: What about the “apoptotic index (AI)” value ([8]; medium (1.2 mg/kg) or high (1.6 mg/kg) dose + DMBA, vs DMBA) of the same compound?
Answer: significant increase (P<0.001)

Question: What about the “expression of cytoplasmic Bcl-2” value (Bcl-2 [9]; low dose 0.8 mg/kg + DMBA) of the same compound?
Answer: not altered

Question: And the Bcl-2-positive cells (Bcl-2 [9]; [13])?
Answer: significant (P<0.005 or 0.001) reduction

Question: And the “cytosolic β-catenin expression” value (β-catenin)?
Answer: significant (P<0.001) decrease

Question: And the “nuclear β-catenin expression” value (β-catenin)?
Answer: significant (P<0.001) decrease

Question: What about the “Bax expression (Western blot)” value (Bax [10]) of the same compound?
Answer: elevated the Bax expression

Question: What about the “No. of rats with tumors/total rats” value [11, 14] of the same compound?
Answer: 5/8

Question: And the Total tumor burden [11, 14]?
Answer: 57.5 g

Question: And the “Tumor Incidence” value [11, 14]?
Answer: 62%

Question: And the Average tumor weight [11, 14]?
Answer: 11.5 ± 4.9 ^ g

Question: And the “No. of rats with tumors/total rats” value [11, 15]?
Answer: 2/7

Question: What about the Total tumor burden [11, 15] of the same compound?
Answer: 9.6 g

Question: And the “Tumor Incidence” value [11, 15]?
Answer: 28^a %

Question: And the Average tumor weight [11, 15]?
Answer: 3.2 ± 1.5^b g

Question: What about the “No. of rats with tumors/total rats” value [11, 16] of the same compound?
Answer: 2/7

Question: What about the Total tumor burden [11, 16] of the same compound?
Answer: 0.8 g

Question: And the “Tumor Incidence” value [11, 16]?
Answer: 28^a %

Question: What about the Average tumor weight [11, 16] of the same compound?
Answer: 0.38 ± 0.03^b g

Question: And the “visible mammary tumors in AMR-Me control” value ([11]; group F: 1.6 mg/kg without DMBA, 18 weeks)?
Answer: no visible mammary tumors

Question: What about the “improvement of cellular architecture in tumor tissue (H&E)” value ([11]; high dose 1.6 mg/kg + DMBA) of the same compound?
Answer: substantial improvement of cellular architecture

Question: And the size of tumors ([11]; high dose 1.6 mg/kg + DMBA)?
Answer: striking reduction in size

Question: And the size of tumors ([11]; low dose 0.8 mg/kg + DMBA)?
Answer: reduced the size of tumors

Question: And the “tumor histopathological features (H&E)” value ([11]; low dose 0.8 mg/kg + DMBA)?
Answer: did not modify tumor histopathological features

Question: What about the “improvement of cellular architecture in tumor tissue (H&E)” value ([11]; medium dose 1.2 mg/kg + DMBA) of the same compound?
Answer: moderate

Question: What about the size of tumors ([11]; medium dose 1.2 mg/kg + DMBA) of the same compound?
Answer: further decrease in the size of tumor

Question: What about the “potency against MCF-7 cells, concentrations” value [12] of the same compound?
Answer: down to the nanomolar range
